Source: patent US12702673B2, “Sulfated C19 steroid hormones to treat and/or prevent proteotoxicity in protein-aggregation diseases” (U[…] DE OLAVIDE, priority 2020, dated 2026)
Entries after “also recorded” stand apart in the source; their conditions may differ. Where a name gives a salt, the structure may show the parent alone.

Key:
[1] = tested on: GMC101 strain expressing human β-amyloid in muscle; assay: Alzheimer's disease model: paralysis of GMC101 strain; type: in vivo, Caenorhabditis elegans; conditions: for paralysis with age: 20° C., monitored during adulthood
Description: Data display from six independent biological replicates, n≥215.
FIG. 4b illustrates that paralysis of GMC101 Alzheimer's disease model is ameliorate with TS and ES.
Assays performed with normal NGM plates. Data display from three independent biological replicates, n>130.
FIG. 15 illustrates that treatment with Androsterone Sulfate (AS) ameliorates the symptoms of Alzheimer's model in Caenorhabditis elegans. The strain GMC101 expresses the human b-amyloid in muscle cells and generate paralysis with age. […] Data from 5 biological replicates. Paralysis was monitored during adulthood. […] More than 200 nematodes were analyzed. Nematodes were synchronized and assayed at 20° C.

[2] = tested on: NL5901 strain expressing α-synuclein in muscle cells; type: in vivo, Caenorhabditis elegans; conditions: 1 μg/ml
[3] = tested on: mammalian model with intrahippocampal administration of βA oligomers; conditions: local administration; cited from earlier work
C. elegans = assay: Longevity (lifespan) assay in C. elegans; type: in vivo, Caenorhabditis elegans
Description: Worms were cultivated in UV-killed E. coli.
FIGS. 13c and 13d illustrate that additional biological replicates of longevity curve with sulfated C19 steroid hormones.

daf-2(e1370) = assay: Development / larval arrest at 25° C. (daf-2 interaction); type: in vivo, Caenorhabditis elegans; conditions: for L1 arrest: daf-2(e1370) background
Description: FIG. 5i illustrates example of sul-2(pv17) larvae, Dauer larval arrest of daf-2(e1370) or L1 arrest of daf-2(e1370); sul-2(pv17) and daf-2(e1370); sul-2(gk187) at 25° C. Animals were grown up to L4 at 16° C., then shifted at 25° C., progeny were scored or imaged after 72 hours. Photographs were taken in a Leica scope.
Photographs were taken in a Leica scope. Arrow heads: Dauers, arrows: L1s.

[4] = tested on: Q40 aggregates (AM141 strain); assay: Huntington model: polyglutamine (Q40) aggregates; type: in vivo, Caenorhabditis elegans; conditions: Q40 background; 1 μg/ml; 5-day old worms
Description: Strains AM140 and AM141 respectively.
In this model, GFP-labelled dopaminergic neurons die due to α-synuclein toxicity. […] We also tested two different strains of Alzheimer's disease (AD) in worms, where immobility is caused by expression of βA protein in muscle cells.

[5] = tested on: CL2006 strain expressing human β-amyloid in muscle; assay: Alzheimer's disease model: paralysis with age of CL2006 strain; type: in vivo, Caenorhabditis elegans
Description: FIG. 12g illustrates that expression of human β-amyloid in muscle provokes paralysis with age (CL2006 strain) that is ameliorated by STX64 treatment. Log-rank (Mantel-Cox) test, for sul-2 deletion p=0.0027 and STX treatment p=0.007.

[6] = tested on: wild type mice injected with β-amyloid oligomers in the hippocampus; assay: Passive avoidance test, acute AD model (intrahippocampal β-amyloid oligomers); type: in vivo
Description: FIGS. 3i and 3j illustrate that the effect of intrahippocampal and oral administration of STX64 in the passive avoidance test in wild type mice injected with β-amyloid oligomers in the hippocampus. The number of mice in each group were >5.
FIG. 3p illustrates effect of oral administration with STX64 in more than 15-month-old APP-PS1 mice, and comparation with APP-PS1 and wild type mice older than 15 months in the passive avoidance test. The number of mice in each group were >5. In histological analysis, * represent significant differences between vehicle- and STX64 administrated APP-PS1 mice. […]
As STX64 ameliorated neurodegeneration in C. elegans models, we tested the effect of this drug on cognitive alterations provoked by intrahippocampal βA oligomers infusion, an acute AD mammalian model (FIG. 3i). […] To evaluate the effect of STX64 oral treatment on amyloid pathology in a chronic AD mice model, we assessed the effect of 3-4 weeks of STX64 oral treatment on amyloid deposition in the […] (the cerebral cortex and the hippocampus) of >15-month-old APP-PS1 mice (FIG. 4k). […]

APP-PS1 mice [7] = assay: β-amyloid deposition in chronic AD model; type: in vivo
Description: FIG. 3k illustrates that representative β-amyloid-immunoreactive images assessed in the frontal cortex and the hippocampus of APP-PS1 mice older than 15 months of age after 3-4 weeks of vehicle or STX64 intake (0.005 mg/ml in drink water).
FIGS. 3l-3n illustrate quantification of percentage of β-amyloid area (c), deposition density (d) and average plaque size (e) in the frontal cortex and the hippocampus of >15 months-old APP-PS1 mice after 3-4 weeks of oral administration with STX64 or vehicle. n=4 mice per groups.
FIG. 3o illustrates temporal course of β-amyloid deposition in APP-PS1 mice and the effect of 3-4 weeks STX64 oral treatment on β-amyloid area in the frontal cortex (upper panel) and the hippocampus (lower panel). The number of microphotographs used was more than 3 in all the mice used.
As STX64 ameliorated neurodegeneration in C. elegans models, we tested the effect of this drug on cognitive alterations provoked by intrahippocampal βA oligomers infusion, an acute AD mammalian model (FIG. 3i). […] To evaluate the effect of STX64 oral treatment on amyloid pathology in a chronic AD mice model, we assessed the effect of 3-4 weeks of STX64 oral treatment on amyloid deposition in the […] (the cerebral cortex and the hippocampus) of >15-month-old APP-PS1 mice ([…]). […] We wondered if this histological improvement correlated with amelioration of cognitive behavioral deficit. For that, we compared cognition capacities in APP-PS1 mice older than 15-month-old treated with vehicle or STX64 for 3-4 weeks.

APP-PS1 mice [8] = assay: Passive avoidance test in chronic AD model; type: in vivo; conditions: APP-PS1 mice older than 15 months; 3-4 weeks oral
Description: FIG. 3p illustrates effect of oral administration with STX64 in more than 15-month-old APP-PS1 mice, and comparation with APP-PS1 and wild type mice older than 15 months in the passive avoidance test. The number of mice in each group were >5. In histological analysis, * represent significant differences between vehicle- and STX64 administrated APP-PS1 mice. In behavioral test, * represent significant differences between the short-term and long-term memory sessions (STM and LTM, respectively) and the training session in the same experimental group; and, + represent significant differences between the STM and LTM sessions between each experimental group and β-amyloid group. A symbol, p<0.05, two symbols, p<0.01, and three symbols, p<0.001.
As STX64 ameliorated neurodegeneration in C. elegans models, we tested the effect of this drug on cognitive alterations provoked by intrahippocampal βA oligomers infusion, an acute AD mammalian model (FIG. 3i). […] To evaluate the effect of STX64 oral treatment on amyloid pathology in a chronic AD mice model, we assessed the effect of 3-4 weeks of STX64 oral treatment on amyloid deposition in the […] (the cerebral cortex and the hippocampus) of >15-month-old APP-PS1 mice (FIG. 4k). […] We wondered if this histological improvement correlated with amelioration of cognitive behavioral deficit. […]

[9] = wild type background, hormone 1 μg/ml
[10] = thermodependent paralysis, 1 μg/ml

## C[C@]12CC[C@@H](OS(=O)(=O)O)C[C@@H]1CC[C@@H]1[C@@H]2CC[C@]2(C)C(=O)CC[C@@H]12 [AS, [(3R,5S,8R,9S,10S,13S,14S)-10,13-Dimethyl-17-oxo-1,2,3,4,5,6,7,8,9,11,12,14,15,16-tetradecahydrocyclopenta[a]phenanthren-3-yl] sulfate]
[1]; 1 μg/ml
  paralysis with age: reduce this effect
[1]; 5 μg/ml
  paralysis with age: reduce this effect

## C[C@]12CC[C@H](O)CC1=CC[C@@H]1[C@@H]2CC[C@]2(C)C(=O)CC[C@@H]12 [DHEA]
[2]
  mobility with age: showed no effect; also recorded: no effect is observed

## CCCCCCCCCCCCCC(=O)NCCc1ccc(OS(N)(=O)=O)cc1 [DU-14]
[3]
  memory loss: could alleviate memory loss

## C[C@]12CC[C@H]3[C@@H](CCC4=CC(=O)CC[C@@]43C)[C@@H]1CC[C@H]2OS(=O)(=O)O [ES, N,N-diethylethanamine; [(8R,9S,10R,13S,14S,17R)-10,13-dimethyl-3-oxo-1,2,6,7,8,9,11,12,14,15,16,17-dodecahydrocyclopenta[a]phenanthren-17-yl] hydrogen sulfate]
C. elegans; sul-2(gk187) / sul-2 mutants background, hormone 1 μg/ml
  life span: did not further increase longevity in sul-2 mutants backgrounds; also recorded: does not further increase in sul-2(gk187)
C. elegans; sul-2(pv17) background, hormone 1 μg/ml
  life span: does not increase further in sul-2(pv17)
C. elegans; [9]
  life span: increases lifespan in wild type background; also recorded: increased in longevity on a wild type background; also recorded: increases life span in a wild type background
[2]
  mobility with age: improves the mobility
[1]; normal NGM plates, 1 μg/ml
  paralysis phenotype: reduced
[1]; [10]
  paralysis phenotype: ameliorate
daf-2(e1370)
  L1 arrest: increase

## NS(=O)(=O)Oc1ccc2c3c(c(=O)oc2c1)CCCCC3 [STX64]
C. elegans; daf-36 background, STX64 1 μg/ml
  lifespan, dependence on daf-36: DAF-36 is required for the longevity; also recorded: necessary for the increase of longevity
C. elegans; sul-2 (gk187) deletion background, STX64 1 μg/ml, UV-killed E. coli
  life span: not in sul-2 (gk187) background; also recorded: does not further increase the longevity of sul-2 deletion mutants
C. elegans; wild type animals, STX64 1 μg/ml, UV-killed E. coli
  life span: increases lifespan in wild type animals; also recorded: an increase in longevity
C. elegans; wild type, non-UV E. coli
  life span: increases lifespan of wild type
[2]
  mobility with age: significantly improved mobility; also recorded: protective effect
[4]
  number of Q40 aggregates: reduced the number of aggregates; also recorded: Q40 aggregates are reduced
[1]; [10]
  paralysis phenotype: delayed paralysis; also recorded: the paralysis phenotype is ameliorated
[5]
  paralysis with age: delayed paralysis; also recorded: ameliorated
daf-2(e1370)
  L1 arrest: mainly arrests in L1
daf-2(e1370); wild type
  development: does not affect development of wild type
[6]; local (intrahippocampal) administration
  cognitive deficiencies, passive avoidance test: reverted the cognitive deficiencies
[6]; systemic (oral) administration
  cognitive deficiencies, passive avoidance test: reverted the cognitive deficiencies
APP-PS1 mice [7]; >15-month-old APP-PS1 mice, 3-4 weeks oral, 0.005 mg/ml in drink water, cortex and hippocampus
  βA plaque density: significant reduction
APP-PS1 mice [7]; >15-month-old APP-PS1 mice, 3-4 weeks oral, cortex
  βA plaque size: significant reduction
APP-PS1 mice [7]; >15-month-old APP-PS1 mice, 3-4 weeks oral, cortex and hippocampus
  βA immunoreactive area: reduced in both tissues
APP-PS1 mice [7]; >15-month-old treated mice compared to un-treated APP-PS1 mice of 10-12 months
  βA deposition versus normal temporal course: reduces βA deposition
APP-PS1 mice [8]
  cognitive deficiencies, passive avoidance test: completely reverted cognitive deficiencies

## C[C@]12CC[C@H]3[C@@H](CCC4=CC(=O)CC[C@@]43C)[C@@H]1CC[C@@H]2OS(=O)(=O)O [TS, [(8R,9S,10R,13S,14S,17S)-10,13-dimethyl-3-oxo-1,2,6,7,8,9,11,12,14,15,16,17-dodecahydrocyclopenta[a]phenanthren-17-yl]hydrogen sulfate]
C. elegans; [9]
  life span: do not affect; also recorded: does not affect longevity
[2]
  mobility with age: improves the mobility
[1]; normal NGM plates, 1 μg/ml
  paralysis phenotype: reduced
[1]; [10]
  paralysis phenotype: ameliorate
daf-2(e1370)
  L1 arrest: increase

## C[C@]12CC[C@H]3[C@@H](CCC4=CC(=O)CC[C@@]43C)[C@@H]1CC[C@@H]2O [testosterone]
[2]
  mobility with age: showed no effect; also recorded: no effect is observed

## dehydroepiandrosterone sulfate [DHEAS]
C. elegans; [9]
  life span: do not affect; also recorded: does not affect longevity
[2]
  mobility with age: improves the mobility
daf-2(e1370)
  L1 arrest: increase

## pregnenolone sulfate
[2]
  mobility with age: showed no effect; also recorded: no effect is observed
